Counter-ions that a name gives are not always drawn.
How the values were obtained:
Format in all cases: physicochemical
[1] = Storage stability of solid state forms (polymorphic conversion, XRPD)
[2] = Dissolution profile of tablet formulations (900 ml 0.1 N HCl, paddle, 100 rpm, 37° C.); settings: tablets, FIG. 24
Procedure: The dissolution profile of the above potassium salt formulation in 900 ml of 0.1 N HCl, paddle (no sinker) at 100 rpm, 37° C. was tested. An aqueous solution comprising Pharmacoat 603 was prepared. The active, Granulac 200, SDS, Avicel PH 101 and Ac-Di-Sol were granulated with the before prepared solution. The obtained granules were sieved through 1650 μm mesh size and subsequently dried at 40° C. After sieving the dried granules through 630 μm mesh size, Prosolv and Ac-Di-Sol were added. The mixture was blended for 10 minutes in a Turbula […] tumble mixer. After addition of Magnesium stearate, blending was continued for 3 minutes. Finally, the blend was compressed into tablets on an eccentric press Ek0 with a 9 mm tablet punch. The dissolution profile of the above sodium salt formulation in 900 ml of 0.1 N HCl, paddle (no sinker) at 100 rpm, 37° C. was tested.

[3] = Determination of the dissolution, 1st experiment (approx. 350 mg in 5 ml solvent, 37° C., approx. 500 rpm, HPLC/UV); settings: for concentration: 37° C.
Procedure: (§1) In the following examples, anhydrous Dolutegravir Na as disclosed in WO2010068253 is employed.
(§2) Approx. 350 mg test substance was weighed into a glass vial, followed by addition of 5 ml solvent. A stirring bar was added, the vial was fixed in a water bath at 37° C. and the suspension was stirred with approx. 500 rpm. After 1 h and 24 h, samples were withdrawn, filtered through a 0.2 μm disposable filter, 50 μl of the clear filtrate were diluted with 950 μl DMSO and 2 μl thereof were analyzed by HPLC/UV.
(§3) HPLC/UV-Method for Quantification of Dolutegravir • Instrument: Agilent 1200 (G3324) • Method: DOLUTEGRAVIR-SOL-G3324.M • Column: YMC Triart C18, 100*3.0 mm, 3.0μ • Flow: 0.6 ml/min. • Temperature: 40.0° C. • Eluent • A: acetonitrile • B: 0.2% formic acid+0.1% Heptafluorobutyric acid (HFBA)
(§4) A calibration curve was established by linear regression analysis of concentration/peak area data pairs obtained by twofold analysis of a set of calibration solutions containing dolutegravir at concentrations between 10 μg/ml and 1,000 μg/ml. In case that the peak area of dolutegravir in an analyzed sample exceeded the upper limit of the calibration range, the sample was diluted and re-analyzed.

[4] = Determination of the dissolution, 2nd experiment (approx. 210 mg in 3 ml solvent, 37° C., approx. 250 rpm, HPLC/UV)
Procedure: as §1
as §2, with “Approx. 210” for “Approx. 350”, “of 3” for “of 5”, “approx. 250” for “approx. 500”, “After 5, 15” for “After 1 h”, “and 60 min,” for “and 24 h,”
as §3, §4

[5] = solvent 50 mM KH2PO4, pH 6.8, 5 min, potassium salt
[6] = solvent 50 mM KH2PO4, pH 6.8, 15 min, potassium salt
[7] = solvent 50 mM KH2PO4, pH 6.8, 60 min, potassium salt
[8] = solvent 0.1 N HCl, 5 min, potassium salt
[9] = solvent 0.1 N HCl, 15 min, potassium salt
[10] = solvent 0.1 N HCl, 60 min, potassium salt
[11] = solvent demineralized water, 5 min, potassium salt
[12] = solvent demineralized water, 15 min, potassium salt
[13] = solvent demineralized water, 60 min, potassium salt

## C[C@@H]1CCO[C@H]2Cn3cc(C(=O)NCc4ccc(F)cc4F)c(=O)c(O)c3C(=O)N12 [Dolutegravir potassium form IV, Dolutegravir potassium salt]
[1]; 45° C./75% relative humidity
  stable upon storage (time): at least 8 weeks

## C[C@@H]1CCO[C@H]2Cn3cc(C(=O)NCc4ccc(F)cc4F)c(=O)c(O)c3C(=O)N12 [Dolutegravir potassium salt]
[2]
  dissolution rate of a pharmaceutical composition compared to the sodium salt: faster and/or higher dissolution rate
[3]; under certain conditions as depicted in Example 9
  dissolution compared to the sodium salt: improved dissolution

## C[C@@H]1CCO[C@H]2Cn3cc(C(=O)NCc4ccc(F)cc4F)c(=O)c(O)c3C(=O)N12 [Dolutegravir-K (Form VI), Dolutegravir potassium salt]
[3]; solvent 20 mM Sodium acetate (NaAc) pH 4.5, 1 h, potassium salt
  concentration: 21770 µg/mL
[3]; solvent 20 mM Sodium acetate (NaAc) pH 4.5, 24 h, potassium salt
  concentration: 16930 µg/mL
[3]; solvent 50 mM KH2PO4 pH 6.8, 1 h, potassium salt
  concentration: 32580 µg/mL
[3]; solvent 50 mM KH2PO4 pH 6.8, 24 h, potassium salt
  concentration: 33440 µg/mL
[3]; solvent 0.1M HCl pH1.2, 1 h, potassium salt
  concentration: 20350 µg/mL
[3]; solvent 0.1M HCl pH1.2, 24 h, potassium salt
  concentration: 20270 µg/mL

## C[C@@H]1CCO[C@H]2Cn3cc(C(=O)NCc4ccc(F)cc4F)c(=O)c(O)c3C(=O)N12 [Dolutegravir-K (Form VII), Dolutegravir potassium salt]
[1]; 25° C. and 60% RH, 30° C. and 65% RH and 40° C. and 75% RH
  stable under storage conditions (time): at least 8 weeks
[4]; [5]
  concentration: 22000 µg/mL
[4]; [6]
  concentration: 23900 µg/mL
[4]; [7]
  concentration: 23300 µg/mL
[4]; [8]
  concentration: 80 µg/mL
[4]; [9]
  concentration: 23780 µg/mL
[4]; [10]
  concentration: 25930 µg/mL
[4]; [11]
  concentration: 39500 µg/mL
[4]; [12]
  concentration: 44000 µg/mL
[4]; [13]
  concentration: 44100 µg/mL

## C[C@@H]1CCO[C@H]2Cn3cc(C(=O)NCc4ccc(F)cc4F)c(=O)c(O)c3C(=O)N12 [Dolutegravir-K (amorphous), Dolutegravir potassium salt]
[1]; 40° C./75% RH
  stable under storage condition (time): at least 12 weeks
[4]; [5]
  concentration: 39100 µg/mL
[4]; [6]
  concentration: 40900 µg/mL
[4]; [7]
  concentration: 60100 µg/mL
[4]; [8]
  concentration: 300 µg/mL
[4]; [9]
  concentration: 21260 µg/mL
[4]; [10]
  concentration: 15400 µg/mL
[4]; [11]
  concentration: 55600 µg/mL
[4]; [12]
  concentration: 55100 µg/mL
[4]; [13]
  concentration: 62300 µg/mL

## C[C@@H]1CCO[C@H]2Cn3cc(C(=O)NCc4ccc(F)cc4F)c(=O)c(O)c3C(=O)N12 [Dolutegravir-Na, reference compound]
[3]; solvent 20 mM Sodium acetate (NaAc) pH 4.5, 1 h
  concentration: 595 µg/mL
[3]; solvent 20 mM Sodium acetate (NaAc) pH 4.5, 24 h
  concentration: 634 µg/mL
[3]; solvent 50 mM KH2PO4 pH 6.8, 1 h
  concentration: 894 µg/mL
[3]; solvent 50 mM KH2PO4 pH 6.8, 24 h
  concentration: 918 µg/mL
[3]; solvent 0.1M HCl pH1.2, 1 h
  concentration: 84 µg/mL
[3]; solvent 0.1M HCl pH1.2, 24 h
  concentration: 412 µg/mL
[4]; solvent 50 mM KH2PO4, pH 6.8, 5 min
  concentration: 270 µg/mL
[4]; solvent 50 mM KH2PO4, pH 6.8, 15 min
  concentration: 1190 µg/mL
[4]; solvent 50 mM KH2PO4, pH 6.8, 60 min
  concentration: 1240 µg/mL
[4]; solvent 0.1 N HCl, 5 min, listed as Dolutegravir-Na (anhydrous)
  concentration: 330 µg/mL
[4]; solvent 0.1 N HCl, 15 min, listed as Dolutegravir-Na (anhydrous)
  concentration: 420 µg/mL
[4]; solvent 0.1 N HCl, 60 min, listed as Dolutegravir-Na (anhydrous)
  concentration: 400 µg/mL
[4]; solvent demineralized water, 5 min
  concentration: 3300 µg/mL
[4]; solvent demineralized water, 15 min
  concentration: 3430 µg/mL
[4]; solvent demineralized water, 60 min
  concentration: 3500 µg/mL
